Data reported in ChEMBL document CHEMBL1201862, “PubChem BioAssay data set” (2004).
Calls of active or inactive are those of the source.

Key:
[1] = target: Glyceraldehyde-3-phosphate dehydrogenase (Homo sapiens, UniProt P04406)
[2] = target: T1, Alkaline phosphatase, tissue-nonspecific isozyme (Homo sapiens, UniProt P05186); assay: potency against alkaline phosphatase TNAP – biochemical, luminescent, dose response, SAR follow-up (AID 1056)
T1 sequence (P05186 whole entry): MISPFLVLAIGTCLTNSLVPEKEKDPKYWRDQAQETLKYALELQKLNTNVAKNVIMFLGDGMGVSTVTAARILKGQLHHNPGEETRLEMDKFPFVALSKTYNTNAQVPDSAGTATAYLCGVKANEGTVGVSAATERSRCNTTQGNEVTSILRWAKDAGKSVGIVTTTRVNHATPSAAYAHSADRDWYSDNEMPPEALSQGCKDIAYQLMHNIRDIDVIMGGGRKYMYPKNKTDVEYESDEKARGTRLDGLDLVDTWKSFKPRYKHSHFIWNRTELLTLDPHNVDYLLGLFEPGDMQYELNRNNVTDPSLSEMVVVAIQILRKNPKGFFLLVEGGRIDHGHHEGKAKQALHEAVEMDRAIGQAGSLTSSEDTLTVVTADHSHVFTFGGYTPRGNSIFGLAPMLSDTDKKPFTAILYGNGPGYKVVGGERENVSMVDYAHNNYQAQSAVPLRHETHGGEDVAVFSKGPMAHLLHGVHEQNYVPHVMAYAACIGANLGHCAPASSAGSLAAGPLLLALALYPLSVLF

[3] = NIH3T3 cell viability loss – ATP luminescence, mouse fibroblasts, counter-screen, dose response (AID 2010); assay type: functional, cell-based;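 also: cells exposed to compound for about 90 hours before reading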
[4] = Trypanosoma cruzi growth suppression in host cells – NIH3T3 host cells, beta-gal luminescence, confirmation (AID 2044); assay type: functional, cell-based;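 also: intracellular parasites grown in NIH/3T3 mouse fibroblasts as host cells; luminescent beta-galactosidase reporter signal from transgenic T. cruzi replicating inside host cells; inhibitors lower the luminescence signal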
[5] = viability of uninfected HEp-2 cells – cell-based, HTS, cytotoxicity control for RSV inhibitor project, dose response (AID 2410); assay type: functional; conditions: human respiratory syncytial virus
[6] = target: T2, Serine/threonine-protein phosphatase (Homo sapiens, UniProt Q9BPW0); assay: Counterscreen for inhibitors of PP1: fluorescence-based biochemical high throughput dose response assay to identify inhibitors of Protein Phosphatase 5 (PP5). [Related pubchem assays: 2034 (Summary (PP5 inhibitors)), 1987 (PP5 inhibitors in singlate), 2235 (PP1 inhibitors in singlate)]
T2 sequence (Q9BPW0 whole entry): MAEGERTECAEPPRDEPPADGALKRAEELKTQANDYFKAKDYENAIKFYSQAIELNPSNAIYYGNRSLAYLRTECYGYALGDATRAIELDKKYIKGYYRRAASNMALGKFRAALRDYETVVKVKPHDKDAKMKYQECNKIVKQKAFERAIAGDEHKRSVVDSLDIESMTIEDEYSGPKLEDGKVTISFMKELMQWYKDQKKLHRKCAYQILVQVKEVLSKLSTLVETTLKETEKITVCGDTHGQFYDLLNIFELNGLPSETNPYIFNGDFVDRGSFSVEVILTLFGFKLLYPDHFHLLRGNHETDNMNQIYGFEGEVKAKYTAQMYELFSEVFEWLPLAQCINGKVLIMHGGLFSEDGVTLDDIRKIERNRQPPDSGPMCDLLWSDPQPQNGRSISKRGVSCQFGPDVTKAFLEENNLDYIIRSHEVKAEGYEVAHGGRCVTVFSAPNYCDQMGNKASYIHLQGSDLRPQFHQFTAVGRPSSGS

[7] = target: Serine/threonine-protein phosphatase PP1-alpha catalytic subunit (Homo sapiens, UniProt P62136); assay: inhibition of protein phosphatase 1 activity – biochemical, fluorescence, dose response (AID 2403);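 also: phosphatase turnover of OMFP into fluorescent 3-O-methylfluorescein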
Serine/threonine-protein phosphatase PP1-alpha catalytic subunit, sequence (P62136 whole entry): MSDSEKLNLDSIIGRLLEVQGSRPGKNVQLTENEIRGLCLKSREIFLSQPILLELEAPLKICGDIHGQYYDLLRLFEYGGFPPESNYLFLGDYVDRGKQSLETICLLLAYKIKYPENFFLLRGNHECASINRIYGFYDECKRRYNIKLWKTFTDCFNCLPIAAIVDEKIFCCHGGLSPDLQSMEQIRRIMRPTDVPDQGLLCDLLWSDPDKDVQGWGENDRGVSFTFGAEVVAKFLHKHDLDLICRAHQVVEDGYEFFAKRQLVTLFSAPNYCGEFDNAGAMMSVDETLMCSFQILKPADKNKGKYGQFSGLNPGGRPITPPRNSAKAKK

[8] = target: T3, Ubiquitin-conjugating enzyme E2 N (Homo sapiens, UniProt P61088); assay type: functional
T3 sequence (P61088 whole entry): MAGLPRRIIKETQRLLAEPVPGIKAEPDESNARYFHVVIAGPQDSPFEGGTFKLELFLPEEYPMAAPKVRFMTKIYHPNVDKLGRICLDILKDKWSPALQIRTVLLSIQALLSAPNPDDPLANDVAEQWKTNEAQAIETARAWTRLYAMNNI

Bcl-2-related protein A1 = target: T4, Bcl-2-related protein A1 (Mus musculus, UniProt Q07440); assay type: functional;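 also: confirmatory dose–response counterscreen on Bfl-1, used to check hits from a UBC13 polyubiquitin inhibitor campaign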
T4 sequence (Q07440 whole entry): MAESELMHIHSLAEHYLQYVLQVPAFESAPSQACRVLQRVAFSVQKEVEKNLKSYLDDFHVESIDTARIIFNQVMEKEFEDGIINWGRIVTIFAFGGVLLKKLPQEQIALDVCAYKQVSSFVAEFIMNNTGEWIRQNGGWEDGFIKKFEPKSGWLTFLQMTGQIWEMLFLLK

[9] = target: T5, Sentrin-specific protease 8 (Homo sapiens, UniProt Q96LD8); assay type: functional
T5 sequence (Q96LD8 whole entry): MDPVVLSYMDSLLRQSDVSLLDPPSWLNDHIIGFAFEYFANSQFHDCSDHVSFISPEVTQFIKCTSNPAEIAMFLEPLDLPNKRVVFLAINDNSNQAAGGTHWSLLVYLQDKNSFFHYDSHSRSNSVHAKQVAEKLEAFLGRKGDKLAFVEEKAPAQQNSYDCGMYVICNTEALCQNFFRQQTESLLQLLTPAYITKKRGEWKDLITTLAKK

[10] = target: T5, Sentrin-specific protease 8; assay type: functional; remark: listed apart in the source
[11] = target: T6, DNA repair protein RAD52 homolog (Homo sapiens, UniProt P43351); assay type: functional, biochemical
T6 sequence (P43351 whole entry): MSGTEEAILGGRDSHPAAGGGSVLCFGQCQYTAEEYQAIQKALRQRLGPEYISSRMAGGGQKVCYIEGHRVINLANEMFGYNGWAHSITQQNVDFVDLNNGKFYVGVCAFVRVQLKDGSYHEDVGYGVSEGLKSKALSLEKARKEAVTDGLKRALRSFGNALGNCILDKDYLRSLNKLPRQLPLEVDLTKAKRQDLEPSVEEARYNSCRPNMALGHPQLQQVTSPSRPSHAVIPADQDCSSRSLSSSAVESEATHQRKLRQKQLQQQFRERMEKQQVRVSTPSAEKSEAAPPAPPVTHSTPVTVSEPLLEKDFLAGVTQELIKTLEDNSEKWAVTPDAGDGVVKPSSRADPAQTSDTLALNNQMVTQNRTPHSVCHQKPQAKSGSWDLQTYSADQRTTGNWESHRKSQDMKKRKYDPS

Nonstructural protein 1 = Nonstructural protein 1 (Influenza A virus, UniProt Q194T2); assay type: functional, Influenza A virus (A/California/07/2009(H1N1))
Nonstructural protein 1, sequence (Q194T2 whole entry): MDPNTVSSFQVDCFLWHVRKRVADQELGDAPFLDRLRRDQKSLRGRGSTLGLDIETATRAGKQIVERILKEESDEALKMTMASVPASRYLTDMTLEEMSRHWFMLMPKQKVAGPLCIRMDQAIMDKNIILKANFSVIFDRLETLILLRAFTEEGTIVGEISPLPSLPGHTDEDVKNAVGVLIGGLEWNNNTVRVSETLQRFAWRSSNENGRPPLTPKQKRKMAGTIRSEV

[12] = target: T3, Ubiquitin-conjugating enzyme E2 N; assay type: functional; remark: listed apart in the source
[13] = target: Peroxisome proliferator-activated receptor gamma/Nuclear receptor coactivator 3 (Homo sapiens, UniProt P37231); assay: TR-FRET dose response biochemical High Throughput Screening assay for agonists of the steroid receptor coactivator 3 (SRC-3) recruitment by the peroxisome proliferator-activated receptor gamma (PPAR gamma): non-selective agonists. [Related pubchem assays: 1301 (Confirmation screen.), 1048 (Primary screen.)]; assay type: functional
[14] = target: Peroxisome proliferator-activated receptor gamma/Nuclear receptor coactivator 1 (Homo sapiens, UniProt P37231); assay: TR-FRET dose response biochemical High Throughput Screening assay for agonists of the steroid receptor coactivator 1 (SRC-1) recruitment by the peroxisome proliferator-activated receptor gamma (PPAR gamma): non-selective agonists. [Related pubchem assays (depositor defined):AID1300, AID1808, AID504735, AID631]; assay type: protein assay
Peroxisome proliferator-activated receptor gamma/Nuclear receptor coactivator 1, sequence (P37231 whole entry): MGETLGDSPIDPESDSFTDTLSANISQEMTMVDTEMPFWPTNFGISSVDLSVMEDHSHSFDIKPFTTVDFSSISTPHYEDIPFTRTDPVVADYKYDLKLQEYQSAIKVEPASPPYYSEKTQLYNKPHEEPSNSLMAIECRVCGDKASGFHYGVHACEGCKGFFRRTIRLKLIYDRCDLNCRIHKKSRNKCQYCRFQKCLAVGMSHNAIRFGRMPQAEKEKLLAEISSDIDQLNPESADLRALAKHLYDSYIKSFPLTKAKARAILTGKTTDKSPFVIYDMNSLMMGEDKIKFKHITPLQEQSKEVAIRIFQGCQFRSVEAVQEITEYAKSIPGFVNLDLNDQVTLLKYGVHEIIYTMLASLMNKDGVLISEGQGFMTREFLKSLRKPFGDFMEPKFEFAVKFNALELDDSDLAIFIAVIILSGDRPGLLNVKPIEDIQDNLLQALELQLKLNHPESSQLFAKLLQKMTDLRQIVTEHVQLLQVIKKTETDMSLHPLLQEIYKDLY
Peroxisome proliferator-activated receptor gamma/Nuclear receptor coactivator 1, sequence (Q15788 whole entry, further chain): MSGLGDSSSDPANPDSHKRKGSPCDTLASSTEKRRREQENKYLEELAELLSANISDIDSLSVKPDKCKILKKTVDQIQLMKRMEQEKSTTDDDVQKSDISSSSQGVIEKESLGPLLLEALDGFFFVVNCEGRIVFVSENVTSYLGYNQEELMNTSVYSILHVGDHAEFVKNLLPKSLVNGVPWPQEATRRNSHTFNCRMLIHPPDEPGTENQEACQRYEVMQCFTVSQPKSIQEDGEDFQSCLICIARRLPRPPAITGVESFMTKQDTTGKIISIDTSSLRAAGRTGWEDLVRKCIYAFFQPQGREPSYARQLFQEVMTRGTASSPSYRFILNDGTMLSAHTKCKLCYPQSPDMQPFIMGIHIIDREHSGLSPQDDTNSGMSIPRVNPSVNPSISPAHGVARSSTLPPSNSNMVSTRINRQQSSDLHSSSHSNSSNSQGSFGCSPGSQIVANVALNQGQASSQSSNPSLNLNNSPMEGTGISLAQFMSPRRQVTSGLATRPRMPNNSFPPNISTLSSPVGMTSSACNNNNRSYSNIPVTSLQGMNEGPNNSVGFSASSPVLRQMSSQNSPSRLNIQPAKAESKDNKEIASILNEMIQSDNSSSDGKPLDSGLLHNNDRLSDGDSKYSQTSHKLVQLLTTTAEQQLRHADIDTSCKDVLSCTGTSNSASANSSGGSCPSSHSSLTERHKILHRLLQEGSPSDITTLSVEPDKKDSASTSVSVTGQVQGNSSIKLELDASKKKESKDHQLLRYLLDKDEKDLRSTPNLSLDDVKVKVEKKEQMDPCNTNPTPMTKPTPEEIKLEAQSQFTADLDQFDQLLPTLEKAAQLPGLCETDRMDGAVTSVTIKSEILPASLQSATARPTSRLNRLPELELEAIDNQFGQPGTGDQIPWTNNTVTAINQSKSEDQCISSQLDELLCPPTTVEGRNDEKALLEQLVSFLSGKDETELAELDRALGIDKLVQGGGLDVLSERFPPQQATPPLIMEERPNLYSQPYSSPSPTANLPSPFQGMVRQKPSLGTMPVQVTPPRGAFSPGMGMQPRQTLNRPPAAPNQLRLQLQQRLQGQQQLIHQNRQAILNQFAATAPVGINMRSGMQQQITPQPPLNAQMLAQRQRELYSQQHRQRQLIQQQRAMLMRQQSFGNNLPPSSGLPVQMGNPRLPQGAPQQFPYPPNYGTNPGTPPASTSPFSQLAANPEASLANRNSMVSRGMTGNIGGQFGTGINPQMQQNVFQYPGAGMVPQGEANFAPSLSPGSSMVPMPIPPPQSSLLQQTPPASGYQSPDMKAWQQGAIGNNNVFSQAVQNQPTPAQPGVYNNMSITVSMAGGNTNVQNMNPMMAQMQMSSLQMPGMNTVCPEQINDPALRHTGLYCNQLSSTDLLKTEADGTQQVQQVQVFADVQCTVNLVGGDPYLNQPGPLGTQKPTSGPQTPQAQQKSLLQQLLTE

[15] = target: Peroxisome proliferator-activated receptor gamma/Nuclear receptor coactivator 2 (Homo sapiens, UniProt P37231); assay: TR-FRET dose response biochemical High Throughput Screening assay for agonists of the steroid receptor coactivator 2 (SRC-2) recruitment by the peroxisome proliferator-activated receptor gamma (PPAR gamma): non-selective agonists. [Related pubchem assays: 1297, 1032 ]; assay type: functional
Peroxisome proliferator-activated receptor gamma/Nuclear receptor coactivator 2, sequence (P37231 whole entry): as the sequence (P37231 whole entry) above
Peroxisome proliferator-activated receptor gamma/Nuclear receptor coactivator 2, sequence (Q15596 whole entry, further chain): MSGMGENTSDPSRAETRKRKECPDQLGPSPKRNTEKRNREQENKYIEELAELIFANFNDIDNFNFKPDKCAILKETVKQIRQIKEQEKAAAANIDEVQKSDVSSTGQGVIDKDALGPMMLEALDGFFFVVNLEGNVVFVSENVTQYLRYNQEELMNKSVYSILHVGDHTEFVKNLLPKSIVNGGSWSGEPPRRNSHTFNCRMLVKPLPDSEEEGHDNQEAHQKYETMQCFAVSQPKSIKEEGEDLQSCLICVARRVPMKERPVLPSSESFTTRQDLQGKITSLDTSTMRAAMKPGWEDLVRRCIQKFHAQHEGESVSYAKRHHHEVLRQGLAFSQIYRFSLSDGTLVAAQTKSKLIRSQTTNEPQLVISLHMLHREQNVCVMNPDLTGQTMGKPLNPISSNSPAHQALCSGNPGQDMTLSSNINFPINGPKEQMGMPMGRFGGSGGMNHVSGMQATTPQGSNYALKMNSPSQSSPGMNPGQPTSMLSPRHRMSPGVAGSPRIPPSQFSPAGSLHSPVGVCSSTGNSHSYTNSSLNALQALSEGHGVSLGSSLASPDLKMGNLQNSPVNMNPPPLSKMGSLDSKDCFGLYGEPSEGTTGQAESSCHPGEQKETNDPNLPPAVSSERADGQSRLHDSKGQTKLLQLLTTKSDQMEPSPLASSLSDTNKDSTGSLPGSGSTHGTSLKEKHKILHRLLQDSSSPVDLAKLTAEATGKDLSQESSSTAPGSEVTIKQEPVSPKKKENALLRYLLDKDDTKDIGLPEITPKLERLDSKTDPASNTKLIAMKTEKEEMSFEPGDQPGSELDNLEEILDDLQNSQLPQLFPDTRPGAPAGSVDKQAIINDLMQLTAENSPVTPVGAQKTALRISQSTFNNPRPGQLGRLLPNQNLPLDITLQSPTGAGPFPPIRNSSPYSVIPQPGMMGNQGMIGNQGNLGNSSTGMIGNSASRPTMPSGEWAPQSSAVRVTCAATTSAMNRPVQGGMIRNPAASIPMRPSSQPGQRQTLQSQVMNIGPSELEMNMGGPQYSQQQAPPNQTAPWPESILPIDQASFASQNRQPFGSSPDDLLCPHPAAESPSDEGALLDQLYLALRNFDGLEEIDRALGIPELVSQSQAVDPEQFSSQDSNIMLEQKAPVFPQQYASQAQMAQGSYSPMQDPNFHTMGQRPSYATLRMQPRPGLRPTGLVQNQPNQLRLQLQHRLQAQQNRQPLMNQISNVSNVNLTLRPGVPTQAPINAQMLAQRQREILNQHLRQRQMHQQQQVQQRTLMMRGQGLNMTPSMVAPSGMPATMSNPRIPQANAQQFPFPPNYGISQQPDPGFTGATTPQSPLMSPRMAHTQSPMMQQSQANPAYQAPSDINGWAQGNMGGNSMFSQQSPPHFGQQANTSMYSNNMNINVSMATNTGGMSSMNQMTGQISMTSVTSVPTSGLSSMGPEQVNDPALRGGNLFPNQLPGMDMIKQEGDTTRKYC

Coagulation factor XII = target: T7, Coagulation factor XII (Homo sapiens, UniProt P00748); assay type: functional;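 also: activated factor XIIa alpha cleaving a fluorogenic AMC peptide substrate; inhibitor potency from loss of enzyme activity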
T7 sequence (P00748 whole entry): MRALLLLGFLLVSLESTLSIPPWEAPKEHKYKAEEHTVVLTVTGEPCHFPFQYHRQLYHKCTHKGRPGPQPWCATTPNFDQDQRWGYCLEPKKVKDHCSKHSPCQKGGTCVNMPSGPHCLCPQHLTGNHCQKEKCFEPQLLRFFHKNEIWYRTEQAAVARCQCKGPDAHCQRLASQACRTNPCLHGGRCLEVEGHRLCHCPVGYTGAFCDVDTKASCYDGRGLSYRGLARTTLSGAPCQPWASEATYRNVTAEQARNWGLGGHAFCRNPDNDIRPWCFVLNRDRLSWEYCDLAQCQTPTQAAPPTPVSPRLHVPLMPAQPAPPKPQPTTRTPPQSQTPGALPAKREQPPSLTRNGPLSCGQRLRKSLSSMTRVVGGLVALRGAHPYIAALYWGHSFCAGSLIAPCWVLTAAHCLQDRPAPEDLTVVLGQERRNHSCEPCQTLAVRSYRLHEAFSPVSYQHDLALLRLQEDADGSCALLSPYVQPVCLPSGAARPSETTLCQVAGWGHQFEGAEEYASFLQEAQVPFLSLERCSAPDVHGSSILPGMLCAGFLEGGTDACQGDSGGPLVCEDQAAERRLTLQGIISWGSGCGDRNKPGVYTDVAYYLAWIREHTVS

Genome polyprotein = Genome polyprotein (dengue virus type 2, UniProt P29990); assay: flavivirus cap methylation enzyme inhibition – biochemical, confirmation dose response, primary screen (AID 588689); assay type: functional
[16] = target: T8, Female germline-specific tumor suppressor gld-1 (Caenorhabditis elegans, UniProt Q17339); assay: blockers of GLD-1/TGE RNA complex formation – biochemical, fluorescence polarization, C. elegans, dose response (AID 2802);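 also: fluorescence polarization of labeled TGE RNA bound by purified gld-1 protein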
T8 sequence (Q17339 whole entry): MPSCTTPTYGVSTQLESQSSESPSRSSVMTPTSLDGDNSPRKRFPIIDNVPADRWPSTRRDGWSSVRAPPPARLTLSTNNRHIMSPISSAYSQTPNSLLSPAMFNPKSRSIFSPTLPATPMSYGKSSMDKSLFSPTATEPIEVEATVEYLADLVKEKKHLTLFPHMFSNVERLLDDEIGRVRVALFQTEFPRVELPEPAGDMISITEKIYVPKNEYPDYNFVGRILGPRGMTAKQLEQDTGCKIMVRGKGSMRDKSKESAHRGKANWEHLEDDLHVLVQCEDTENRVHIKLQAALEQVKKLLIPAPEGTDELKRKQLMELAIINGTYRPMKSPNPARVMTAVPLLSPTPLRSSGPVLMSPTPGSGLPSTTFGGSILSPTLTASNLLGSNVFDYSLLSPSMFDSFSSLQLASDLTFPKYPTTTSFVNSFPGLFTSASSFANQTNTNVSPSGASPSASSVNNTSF

Protein Rev = target: T9, Protein Rev (Human immunodeficiency virus type 1 group M subtype B (isolate HXB2)(HIV-1), UniProt P04618); assay: blockers of HIV Rev/RRE RNA complex – biochemical, fluorescence polarization, HIV-1, dose response (AID 434976); design: species or system Human immunodeficiency virus 1
T9 sequence (P04618 whole entry): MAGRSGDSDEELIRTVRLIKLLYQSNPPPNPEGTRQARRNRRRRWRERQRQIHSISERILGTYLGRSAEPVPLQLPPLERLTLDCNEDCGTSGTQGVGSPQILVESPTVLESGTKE

Glyceraldehyde-3-phosphate dehydrogenase, sequence (P04406 whole entry): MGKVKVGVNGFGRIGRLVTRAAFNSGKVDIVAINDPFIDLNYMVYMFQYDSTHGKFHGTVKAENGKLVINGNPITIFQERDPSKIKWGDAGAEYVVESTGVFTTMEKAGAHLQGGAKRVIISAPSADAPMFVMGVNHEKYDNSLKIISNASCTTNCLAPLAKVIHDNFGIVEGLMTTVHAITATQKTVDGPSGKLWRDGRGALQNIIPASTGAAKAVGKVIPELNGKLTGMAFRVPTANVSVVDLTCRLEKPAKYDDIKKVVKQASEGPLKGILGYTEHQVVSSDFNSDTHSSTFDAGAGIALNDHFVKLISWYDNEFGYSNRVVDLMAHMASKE

## O=S(=O)(Nc1cnc2ccccc2c1)c1ccccc1
[1]
  IC50: > 100 µM (not active)
[2]
  IC50: > 100 µM (inactive)

## CC(=O)Nc1nnc(S(C)(=O)=O)[nH]1
[1]
  IC50: > 100 µM (not active)
[2]
  IC50: > 100 µM (inactive)

## Cc1ccc(C)c(Nc2c([N+](=O)[O-])cc(C(=O)N3CC(=O)Nc4ccccc43)cc2[N+](=O)[O-])c1
[3]
  EC50: > 60 µM (inconclusive)
cells
  IC50: 41.7 µM (active)
[4]
  EC50: 0.992 µM (active)
[5]
  CC50: 28.3 µM (active)

## CCOC(=O)c1cnc(-n2nc(C)cc2C)nc1NCCc1ccccc1
[3]
  EC50: > 30 µM (not active)
[6]
  IC50: > 67 µM (not active)
[4]
  EC50: 2.04 µM (active)
[7]
  IC50: 6.96 µM (active)

## CN1CCN(c2cc(-c3cc(O)c4ncccc4c3)ccn2)CC1
[8]
  IC50: 15.6 µM (active)
Bcl-2-related protein A1
  IC50: 12.5 µM (active)
[9]
  IC50: 5.17 µM (active)
[10]
  IC50: 6.88 µM (active)
[11]
  AC50: 1.58 µM (active)
Nonstructural protein 1
  IC50: 9.85 µM (active)
[12]
  IC50: 10.8 µM (active)

## CCCCc1nc2sc3c(SCC(=O)NCc4ccco4)ncnc3c2c2c1CCC2
[13]
  EC50: > 79.4 µM (not active)
[14]
  EC50: 78.6 µM (inactive)
[15]
  EC50: 58.8 µM (not active)

## CCOc1cc(CO)ccc1OCC(=O)N1CCCCC1
Coagulation factor XII
  IC50: > 50 µM (inactive)

## COc1cnc(-c2ccccn2)nc1Oc1cccc(Cl)c1
[6]
  IC50: > 67 µM (not active)
[7]
  IC50: 8.46 µM (active)

## Cc1ccc(C(=O)N/C(=C/c2ccc(C(C)C)cc2)C(=O)NCCCN2CCOCC2)cc1
cells
  IC50: 13.2 µM (active)
[5]
  CC50: > 50 µM (active)

## Cc1cc(N2C(=O)C(O)=C(C(=O)c3ccc(Cl)cc3)C2c2cccc(Br)c2)no1 (stereo unspecified)
[13]
  EC50: > 79.4 µM (not active)
[14]
  EC50: > 79.4 µM (inactive)
[15]
  EC50: 113 µM (not active)

## COc1ccccc1CC(=O)NN1C(=O)c2ccccc2C1=O
Coagulation factor XII
  IC50: > 50 µM (inactive)

## O=C1c2ccccc2C(=O)N1c1nnc(Cc2ccc(F)cc2)[nH]1
[1]
  IC50: > 100 µM (not active)
[2]
  IC50: 4.66 µM (active)

## Cc1ccc(C(=O)N/N=C/c2ccc(-c3ccc(Br)cc3[N+](=O)[O-])o2)o1
Genome polyprotein
  IC50: > 100 µM (active)
[16]
  IC50: 10.4 µM (inactive)
Protein Rev
  IC50: > 25.1 µM (not active)
